Experimental data published in patent US20080306037A1, “Product for Use in the Prevention and Treatment of Cardiovascular Diseases, Cancer and Chronic Inflammatory Diseases” (priority 2005, published 2008).

Tested on: NF-kB transcription factor
Experiment: Luciferase trial: inhibition of NF-kB activation by TNFα in 5.1 linfoid cells (Jurkat clone, HIV-LTR luciferase)
Assay type: cell-based
Settings: concentration 125 μg/ml, 30 min pre-incubation, TNFα 2 ng/ml 6 hours
Protocol: Cells. A cellular line 5.1, that is a clone derived from Jurkat stably transfected with a plasmid that contains the gene of the luciferase channelled by the HIV-LTR promoter, an exponential growth is maintained in a RPMI 1640 medium supplemented with a 10% of an foetal bovine serum deactivated by heat, 2 mM of L-glutamine, 1 mM HEPES, antibiotics and 200 μg/ml of G418. Luciferase Trial. […] Next, the cells were damaged in 25 mM tris-phosphate pH 7,8, 8 mM MgCl2 1 mM DTT, 1% Triton X-100, y 7% glycerol. The luciferase activity was measured using Autolumat LB 9501 following the instructions of the luciferase trial kit and the protein concentration was measured by the Bradford method. In order eliminate the background noise caused by the lysis solution, this value was deducted in each value of the experiment and the activation was expressed as proportional induction compared to the untreated cells. Cells. The 5.1 cellular line was used, as and how described in example 1. Luciferase Trial. The 5.1 cellular line was pre-incubated for 30 minutes with oleic acid in the concentrations as stated, followed by stimulation with TNFα (2 ng/ml) for 6 hours. The NF-kB transcriptional activity was measured in the same way as in example 1. Cells. The 5.1 cellular line was used, as and how described in example 1. Luciferase Trial. […] The NF-kB transcriptional activity was measured in the same way as in example 1.

## CCCCCCCC/C=C\CCCCCCCC(=O)O [oleic acid]
  activation index (NF-kB transcription factor activation, luciferase, proportional induction compared to untreated cells): 7-8
